Laboratory results as given in US20160176859A1, “High-Throughput Assay for Identifying Small Molecules that Modulate AMP-activated Protein Kinase (AMPK)” (North Carolina Central University, priority 2013, published 2016).

Assays:
[1] = target: T1, full-length AMPK (rat His-α1, β1, γ1) (Rattus norvegicus, UniProt P54645+P80385); assay: MANT-ADP fluorescence displacement (binding) assay, full-length AMPK; details: for inhibition of the protein-bound signal of MANT-ADP in the triplicate similarity screen: final concentration 45 μM
T1 construct: Tricistronic vectors encoding full-length AMPK (rat His-α1, β1, γ1); made in house; host or cells: Rosetta cells (E. coli), tricistronic vector, gift of Dr. Uwe Schlattner
Method: Except where otherwise noted, assays were performed with the following conditions: 0.5 μM full-length AMPK (130 kDa) or 0.5 μM regulatory fragment (66.7 kDa), 0.1 μM MANT-ADP, 10 mM Tris-HCl (pH 8), 0.45% DMSO (vehicle and negative control), and 5 μM ADP (positive control). Automated assays were assembled in two steps. First, a NanoQuot (BioTek) was used to dispense 11 μL of master mix (protein, MANT-ADP, and Tris-HCl) per well in black, low volume 384-well plates (Corning-3676). Next, a Biomek NX workstation (Beckman-Coulter, Brea, Calif.) equipped with pintools (VP Scientific, San Diego Calif.) was used to transfer 50 nL of controls (columns 1, 2, 23, and 24) and small molecules (4.5 μM final). Controls and library molecules were transferred from Axygen 384-well rigid PCR plates (Cat no. 321-67-051) at 221× concentration for single-concentration screening. Plates were shaken for 10 minutes prior to reading.
Fluorescence emission spectra of MANT-ADP were collected using a PerkinElmer EnSpire plate reader with an excitation wavelength of 360 nm. Background fluorescence from protein was subtracted from the raw data prior to plotting MANT-ADP's fluorescence in the presence of protein. Fluorescence detection for assay development and screening was performed on either a BMG Pherastar Plus (360/10 excitation and 460/10 emission filters) or a PerkinElmer EnVision (355/40 excitation and 460/25 emission filters), depending on equipment availability. Relative fluorescence units (RFUs) were recorded at room temperature.
ScreenAble (ScreenAble Solutions, Chapel Hill, N.C.) high-throughput screening software was utilized for merging screening data and chemical structure, for statistical design of experiments, and hit selection. GraphPad Prism was used for non-linear regression analysis of dose response data.
Binding assays. Except where otherwise noted, assay assembly and data analysis were completed according to published methods. Binding assays were manually assembled, with the exception of the similarity screen. Automated assembly of the similarity screen was completed according to published methods. Analogs were cherry-picked from a 10 mM Asinex small molecule library and a 0.5 mM kinase focused library, which has been described previously (4). Molecules were screened at a final concentration of 45 and 2.3 μM, respectively.

[2] = target: T2, p-AMPK in the presence of PP2C (Rattus norvegicus, UniProt P54645+P80385); assay: Phosphatase assay: protection of p-AMPK from dephosphorylation by PP2C; type: biochemical; details: p-AMPK/total AMPK ratio normalized to no-PP2C control
T2 construct: Full-length AMPK intended for use in phosphatase and kinase assays was purified, mixed with GST-CaMKKβ; made in house; host or cells: Rosetta cells (E. coli); phosphorylated in vitro with GST-CaMKKβ, which was then removed
Method: Phosphatase assays. Assay conditions were adapted from published methods (18). In short, the final assay buffer was compromised of 50 mM Tris (pH 7.5), […], 0.01% Triton X-100, 1 mM DTT, and 0.45% DMSO (vehicle). Because some analogs had poor solubility at high concentrations, all analogs and controls were diluted in assay buffer and centrifuged (1 min, 5000 rpm, 4° C.) to remove insoluble matter. PP2C and p-AMPK were added to the supernatant at final concentrations of 2 and 3 ng/μL, respectively. Phosphatase reactions were allowed to proceed for 30 minutes at 37° C. Reactions were stopped by the addition of loading buffer and 48 mM DTT followed promptly by freezing at −20° C.
Western analyses. Protein samples were boiled for 15 minutes in loading buffer and DTT prior to SDS-PAGE. Blots for protein-based assays were sequentially incubated with the following: 5% BSA in 1× TBS (1 hr, 22° C.), 1:1000 rabbit anti-human p-AMPK-α antibody or p-ACC antibody (2 hr, 22° C.), and 1:10,000 donkey anti-rabbit secondary antibody (1 hr, 22° C.). Blots for phosphatase assays were probed a second time using 1:100 mouse anti-human total AMPK antibody (overnight, 4° C.; from UNC Antibody Core Facility) followed by 1:10,000 donkey anti-mouse secondary antibody (1 hr, 22° C.). […]

purified p-AMPK = target: T3, purified p-AMPK (Rattus norvegicus, UniProt P54645+P80385); assay: Kinase assay with purified p-AMPK and GST-ACC peptide; type: biochemical; details: compared to DMSO control
T3 construct: Full-length AMPK intended for use in phosphatase and kinase assays was purified, mixed with GST-CaMKKβ; made in house; host or cells: Rosetta cells (E. coli); phosphorylated in vitro with GST-CaMKKβ, which was then removed on glutathione resin
Method: Kinase assays. Assay conditions were adapted from published methods (17). The final assay buffer was comprised of 40 mM Hepes (pH 7.4) 5 mM MgCl2, 200 μM ATP, 75 mM NaCl, 0.01% Triton X-100, 1 mM DTT, and 0.45% DMSO (vehicle). Because some analogs had poor solubility at high concentrations, all analogs and controls were diluted in assay buffer and centrifuged (1 min, 5000 rpm, 4° C.) to remove insoluble matter. GST-ACC peptide and p-AMPK were thawed, diluted in assay buffer, and then added to the supernatant at final concentrations of 900 and 0.1 ng/μL, respectively. Kinase assays were assembled on ice; reactions were allowed to proceed for 30 minutes at room temperature. Reactions were stopped by the addition of loading buffer and 48 mM DTT followed promptly by freezing at −20° C.
(§1) Western analyses. Protein samples were boiled for 15 minutes in loading buffer and DTT prior to SDS-PAGE. Blots for protein-based assays were sequentially incubated with the following: 5% BSA in 1× TBS (1 hr, 22° C.), 1:1000 rabbit anti-human p-AMPK-α antibody or p-ACC antibody (2 hr, 22° C.), and 1:10,000 donkey anti-rabbit secondary antibody (1 hr, 22° C.). Blots for phosphatase assays were probed a second time using 1:100 mouse anti-human total AMPK antibody (overnight, 4° C.; from UNC Antibody Core Facility) followed by 1:10,000 donkey anti-mouse secondary antibody (1 hr, 22° C.). Blots for clarified cell lysates were sequentially probed for p-AMPK (1:500 dilution, overnight at 4° C. or 4 hours at 22° C.), total ACC (1:1000 dilution, overnight at 4° C. or 4 hours at 22° C.), and tubulin (1:10,000 dilution, 1 hr, 22° C.); a parallel set of blots were probed for p-ACC (1:500 dilution, overnight at 4° C. or 4 hours at 22° C.), total AMPK (1:1000 dilution, overnight at 4° C. or 4 hours at 22° C.), and tubulin (1:10,000 dilution, 1 hr, 22° C.). Because phosphorylated and total protein were imaged on separate membranes, the signals were normalized to the internal tubulin signal prior to calculating the ratio of phosphorylated to total protein. Scanning and imaging were completed according to published methods.

[3] = tested on: p-ACC levels in HEK cells; assay: Cell-intact assay, p-ACC levels in HEK cells; type: cell-based, human
Method: Cell-intact assays. HEK cells were grown in DMEM with 10% FBS and 1% penicillin/streptomycin at 37° C. A subset of plates was serum-starved for 5 hours on the day of the experiment. After 5 hours of serum-starvation, cells were treated with either controls (0.2% DMSO, A-769662, or Compound C) or small molecules in the absence of serum for an additional hour prior to lysis. Another subset of plates was serum-starved for 6 hours and then treated with either controls or small molecules for 1 hour in the presence of 10% FBS. A time course of both AMPK and ACC phosphorylation in HEK cells during serum starvation has already been published (Pirkmajer S, Chibalin A V. Serum starvation: caveat emptor. American journal of physiology Cell physiology. 2011 August; 301(2):C272-9. PubMed PMID: 2161361).
After incubating in the presence of drugs for one hour, cells were washed three times with ice-cold PBS and lysed according to published methods (Kazgan N, Williams T, Forsberg L J, Brenman J E. Identification of a nuclear export signal in the catalytic subunit of AMP-activated protein kinase. Molecular biology of the cell. 2010 Oct. 1; 21(19):3433-42. PubMed PMID: 20685962. Pubmed Central PMCID: 2947478). Lysates were centrifuged at 16,000 g (10 minutes, 4° C.). Clarified supernatant (30 μL) was then transferred to 10 μL 4X loading buffer and 2 μL 1 M DTT. Samples were immediately frozen at −20° C. The concentration of protein in diluted clarified supernatant was calculated using a DC protein assay kit (BioRad) prior to western analyses.
as §1

T1 sequence (P54645 with tags, fused parts or gaps limits assumed): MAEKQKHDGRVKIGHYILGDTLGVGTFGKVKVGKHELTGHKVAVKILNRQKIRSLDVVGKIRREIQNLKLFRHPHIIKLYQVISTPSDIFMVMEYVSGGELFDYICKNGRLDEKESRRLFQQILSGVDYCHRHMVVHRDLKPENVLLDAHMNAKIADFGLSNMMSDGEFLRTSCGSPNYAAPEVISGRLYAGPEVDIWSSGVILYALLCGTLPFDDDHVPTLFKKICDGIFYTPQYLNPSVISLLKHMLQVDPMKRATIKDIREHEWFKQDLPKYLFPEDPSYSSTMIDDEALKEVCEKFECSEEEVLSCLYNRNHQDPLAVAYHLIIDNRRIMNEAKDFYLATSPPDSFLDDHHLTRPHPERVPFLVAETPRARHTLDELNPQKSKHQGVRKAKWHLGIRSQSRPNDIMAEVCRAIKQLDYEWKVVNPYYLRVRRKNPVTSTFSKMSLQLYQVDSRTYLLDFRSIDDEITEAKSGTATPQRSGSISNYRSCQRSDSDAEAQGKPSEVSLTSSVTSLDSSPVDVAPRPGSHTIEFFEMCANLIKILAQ
T1 sequence (P80386 whole entry partner): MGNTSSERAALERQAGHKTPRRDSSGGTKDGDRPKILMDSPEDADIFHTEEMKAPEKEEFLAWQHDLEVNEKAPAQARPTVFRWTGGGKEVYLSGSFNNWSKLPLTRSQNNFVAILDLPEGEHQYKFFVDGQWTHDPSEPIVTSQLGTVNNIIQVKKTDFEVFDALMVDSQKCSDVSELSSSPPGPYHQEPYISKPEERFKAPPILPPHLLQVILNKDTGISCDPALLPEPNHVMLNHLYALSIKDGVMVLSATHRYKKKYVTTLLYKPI
T1 sequence (P80385 whole entry): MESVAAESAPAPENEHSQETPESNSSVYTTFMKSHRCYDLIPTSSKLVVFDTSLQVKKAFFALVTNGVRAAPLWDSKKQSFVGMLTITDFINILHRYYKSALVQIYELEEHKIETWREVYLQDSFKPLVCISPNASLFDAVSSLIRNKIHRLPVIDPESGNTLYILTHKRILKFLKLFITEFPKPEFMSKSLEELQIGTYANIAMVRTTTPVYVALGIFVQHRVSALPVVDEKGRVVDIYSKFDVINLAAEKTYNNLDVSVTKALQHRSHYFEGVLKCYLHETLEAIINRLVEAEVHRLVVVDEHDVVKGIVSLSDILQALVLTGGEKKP
T3 sequence (P54645 with tags, fused parts or gaps limits assumed): as the sequence (P54645 with tags, fused parts or gaps limits assumed) above
T3 sequence (P80386 whole entry partner): as the sequence (P80386 whole entry partner) above
T3 sequence (P80385 whole entry): as the sequence (P80385 whole entry) above
T2 sequence (P54645 with tags, fused parts or gaps limits assumed): as the sequence (P54645 with tags, fused parts or gaps limits assumed) above
T2 sequence (P80386 whole entry partner): as the sequence (P80386 whole entry partner) above
T2 sequence (P80385 whole entry): as the sequence (P80385 whole entry) above

| Compound | inhibition of the protein-bound signal of MANT-ADP in the triplicate similarity screen [1] | IC50 ([1]; full-length AMPK, Example 4, read-out: binding IC50) [µM] | protection of p-AMPK from dephosphorylation [2] | activity of purified p-AMPK (phosphorylation of GST-ACC peptide), dose response (purified p-AMPK) | p-ACC levels, serum-treated HEK cells ([3]; 10% serum) | p-ACC levels, serum-starved HEK cells ([3]; serum-starved, 1 hour treatment) |
| --- | --- | --- | --- | --- | --- | --- |
| COC(=O)CN1C(=O)/C(=C/c2ccc(OC)cc2)SC1=S [BAS 00502779] | reproducibly inhibited | – | – | – | – | – |
| CCCOC(=O)c1cc(-c2ccc(/C=C3\SC(=S)NC3=O)o2)ccc1Cl [BAS 03338548, Propyl 2-chloro-5-(5-{[(5Z)-4-oxo-2-sulfanylidene-1,3-thiazolidin-5-ylidene]methyl}furan-2-yl)benzoate] | reproducibly inhibited | < 5 | failed to protect | – | – | – |
| c1cc(-c2cnn3cc(-c4ccc(OCCN5CCCCC5)cc4)cnc23)ccn1 [Compound C, reference compound] | – | – | – | inhibits substrate phosphorylation | modest decreases | best inhibition |
